Experiments:
Klebsiella pneumoniae = experiment: Anti-infectious activity: protection of mice inoculated with Klebsiella pneumoniae; type: in vivo; conditions: for Protection (%) / Survival at day 10 of infection No/total: 100 μg i.v. at day -1; for Protection (%): i.m. infection with 1.5 × 10^4 viable organisms, difference between percentages of survivors in treated and control group; for Survival at day 10 of infection No/total: infection by the intramuscular route with 1.5 × 10^4 viable organisms; for % protection: difference of percentages of survivors, treated vs control group
[1] = concentration as high as 100 μg/ml
adrenalectomized mice = conditions: 100 μg injected intravenously into five adrenalectomized mice
rabbits = conditions: doses as high as 5 mg/kg of body weight
[2] = 100 μg i.v. 24 H before infection, infection 3.10^4 K.p. i.m., 24 mice at day 0
[3] = 100 μg i.v. 24 H before infection, infection 4.10^3 K.p. i.v., 24 mice at day 0 (8 for glyceryl-mycolate)

Compound | Protection (%) (Klebsiella pneumoniae) | Survival at day 10 of infection No/total (Klebsiella pneumoniae) | further results
1-O(L-Ala-D-isoAsn-L-Ala)-glycerol-3-mycolate | 37% | 16/32 | 
1-O(L-alanyl-D-isoglutaminyl-L-alanyl)glycerol-3-mycolate | 70% | 31/40 | Limulus test result [1]: negative; Number of mice day 3 (Klebsiella pneumoniae; [2]): 23; Number of mice day 5 (Klebsiella pneumoniae; [2]): 20; Number of mice day 10 (Klebsiella pneumoniae; [2]): 17; % protection (Klebsiella pneumoniae; 100 μg i.v. 24 H before infection, infection 3.10^4 K.p. i.m.): 37%; Number of mice day 3 (Klebsiella pneumoniae; [3]): 21; Number of mice day 5 (Klebsiella pneumoniae; [3]): 21; Number of mice day 10 (Klebsiella pneumoniae; [3]): 21; % protection (Klebsiella pneumoniae; 100 μg i.v. 24 H before infection, infection 4.10^3 K.p. i.v.): 79%; death of adrenalectomized mice (adrenalectomized mice): did not cause death of any of them; hyperthermizing (pyrogenic) effect (rabbits): no hyperthermizing effect
1-O-(D-isoGln-L-Ala)-glycerol-3-mycolate hydrochloride | 47% | 28/49 | 
1-O-(L-Ala-D-Gln-L-Ala)-glycerol-3-mycolate | 12% | 8/32 | 
1-O-(L-Ala-D-isoGln-L-Ala)-glycerol-3-corynomycolate | 28% | 11/32 | 
1-O-(L-alanyl)-glycerol-3-mycolate hydrochloride [1-O--(L--Ala)--glycerol-3-mycolate] | 35% | 16/40 | 
1-O-(L-alanyl-L-isoglutaminyl-L-alanyl)-glycerol-3-mycolate hydrochloride | 12% | 7/32 | 
1-O-(β-Ala-D-isoGln-L-Ala)-glycerol-3-mycolate hydrochloride | 25% | 12/32 | 
CCCCCCCCCCCCCCCCCC(=O)OCC(COC(=O)[C@H](C)NC(=O)CC[C@@H](NC(=O)[C@H](C)N)C(N)=O)OC(=O)CCCCCCCCCCCCCCCCC.Cl (stereo partly drawn) [1-O-(L-Ala-D-isoGln-L-Ala)-glycerol-2,3-distearate hydrochloride] | 12% | 5/24 | 
CCCCCCCCCCCCCCCCCC(=O)OCC(O)COC(=O)[C@H](C)NC(=O)CC[C@@H](NC(=O)[C@H](C)N)C(N)=O.Cl (stereo partly drawn) [1-O-(L-Ala-D-isoGln-L-Ala)-glycerol-3-stearate hydrochloride] | 8% | 4/24 | 
CCCCCCCCCCOC(=O)C(C)NC(=O)CCC(NC(=O)C(C)N)C(N)=O.Cl [DP--L--Ala--decyl ester, L-Ala-D-isoGln-L-Ala-n-decylester hydrochloride] | 0% | 1/24 | 
CCCCCCCCCCCCCCCOC(=O)[C@H](C)NC(=O)CC[C@@H](NC(=O)[C@H](C)N)C(N)=O.Cl [DP--L--Ala--pentadecylester, L-Ala-D-isoGln-L-Alan-n-pentadecylester hydrochloride] | 4% | 4/32 | 
glycerol-3-mycolate [Glyceryl-mycolate, reference compound] |  |  | Number of mice day 3 (Klebsiella pneumoniae; mouse, in vivo, iv): 1; Number of mice day 5 (Klebsiella pneumoniae; mouse, in vivo, iv): 1; Number of mice day 10 (Klebsiella pneumoniae; mouse, in vivo, iv): 1; anti-infectious activity (in words) (Klebsiella pneumoniae; mouse, in vivo, iv): devoid of significant activity

— patent US4335111A, “Compounds associating peptidyl of aminoacyl residues to lipophilic groups and pharmaceutical compositions containing said new compounds” (priority 1978, dated 1982)
